# Measurements as given in patent publication US11850252B2, “Use of nor-ursodeoxycholic acid for reducing liver fat” (Dr. Falk Pharma GmbH, priority 2017, dated 2023).
# “And” between values parts separate entries of the source, which are not always exact repeats. Equal values may be shown once.
# How the values were obtained:
# [1] = test system: Patients with a clinical diagnosis of non-alcoholic hepatic steatosis; test: Hepatic fat fraction measured by MRI and/or MRS, phase II clinical trial; format: in vivo, human
# Protocol: (§1) A double-blinded, randomized, placebo-controlled phase II clinical trial was conducted as described in the following.
# (§2) Patients with a clinical diagnosis of non-alcoholic hepatic steatosis were randomized to a 12-week treatment period and a 4-week follow-up. Patients were divided into three groups. The first groups received 1,500 mg Nor-UDCA per day (6 capsules with 250 mg Nor-UDCA in each capsule). The second group received 500 mg Nor-UDCA per day (2 capsules with 250 mg Nor-UDCA in each capsule and 4 capsules with 250 mg placebo in each capsule). The third group received 6 capsules with 250 mg placebo in each capsule.
# If available, magnetic resonance imaging/spectroscopy (MRI/MRS) examinations were performed at V1 or within 4 weeks before and 1 week after V1 and at V6. Both, MRI and MRS are MR-based methods to separate the liver signal into its water and fat components. The resonance frequencies corresponding to protons in water and to the dominant protons in fat are distinct, and can be quantified directly from the spectral tracing.
# The following equation was to be used to calculate the hepatic fat fraction derived from chemical shift imaging (CSI) data: CSI hepatic fat fractionunoorrected=SIin phase−SIopposed phase/2×SIin phase
# To account for signal intensity differences not dependent of the fat content, a region of interest was also placed in the spleen in the same image as the liver measurements were performed. To calculate the signal-intensity corrected (using the spleen measurements) hepatic fat fraction, the equation above will be adopted as follows: CSI hepatic fat fractionspleen correction=(SIin phase liver/SIspleen)−(SIopposed phase liver/SIspleen)/2×(SIin phase liver/SIspleen)
# If the calculations lead to negative mean hepatic fat fraction values, these negative values were considered as a fat fraction of 0, because a negative value is not possible.
# MRS were performed at 1.5 or 3.0 Tesla to determine hepatic triglyceride content (in %).
# [2] = test system: Patients with a clinical diagnosis of non-alcoholic hepatic steatosis; test: Liver enzymes (serum ALT, AST, GGT, AP, bilirubin), phase II clinical trial; format: in vivo, human; conditions: N500 (500 mg/day);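 for Serum bilirubin, Mean ± SD: unit mg/dL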
# Protocol: as §1, §2
# The effects of Nor-UDCA on liver enzyme values have been assessed with respect to the courses of ALT, AST, GGT, AP and serum bilirubin. In addition, treatment effects with respect to pre-defined outcome criteria based on the upper limits of normal (ULN) of ALT, AST and GGT were examined.
# The serum levels of ALT, AST, GGT, AP and serum bilirubin were determined by established standard laboratory methods.
structure (smiles),measurement,setting,value
"CC(CC(=O)O)[C@H]1CCC2[C@H]3C(CC[C@@]21C)[C@@]1(C)CCC(O)C[C@H]1C[C@@H]3O (some centres unmarked) [Nor-UDCA, 24-nor-ursodeoxycholic acid]","Hepatic fat fraction measured by MRI and/or MRS, Mean ± SD","[1]; N500 (500 mg Nor-UDCA per day), V1 screening",14.6 ± 14.5%
same,"Hepatic fat fraction measured by MRI and/or MRS, Mean ± SD","[1]; N500 (500 mg Nor-UDCA per day), V6-LOCF week 12",15.5 ± 13.5%
same,"Hepatic fat fraction measured by MRI and/or MRS, Mean ± SD","[1]; N1500 (1,500 mg Nor-UDCA per day), V1 screening",21.3% and 21.3 ± 15.4%
same,"Hepatic fat fraction measured by MRI and/or MRS, Mean ± SD","[1]; N1500 (1,500 mg Nor-UDCA per day), V6-LOCF week 12",16.3% and 16.3 ± 14.4%
same,decrease in the hepatic fat fraction,[1]; group receiving 500 mg,no substantial decrease
same,mean absolute change of ALT from V2 to V6-LOCF,[2],−7.0 U/I
same,patients fulfilling criterion AST>0.33 ULN to ≤0.67 ULN,[2],26.4%
same,patients fulfilling outcome criterion GGT>0.33 ULN to ≤0.67,[2],13.0%
same,patients with combined criterion of ALT and/or AST decrease 15%,[2],49.3%
same,proportion of patients fulfilling criterion AST<1.5 ULN,[2],50.0%
same,proportion of patients fulfilling criterion AST<ULN,[2],27.3%
same,"proportion of patients, criterion GGT ULN",[2],12.2%
same,GGT,[2]; V2,144.7 U/I
same,"ALT, Mean ± SD",[2]; V2 baseline week 0,80.3 ± 33.3 U/l
same,"ALT/AST, Mean ± SD",[2]; V2 baseline week 0,1.71 ± 0.50
same,"AP, Mean ± SD",[2]; V2 baseline week 0,83.9 ± 27.6 U/l
same,"AST, Mean ± SD",[2]; V2 baseline week 0,49.8 ± 27.4 U/l
same,"GGT, Mean ± SD",[2]; V2 baseline week 0,144.7 ± 160.0 U/l
same,"Serum bilirubin, Mean ± SD",[2]; V2 baseline week 0,0.64 ± 0.40 mg/dL
same,change of AST,[2]; V2 to V6-LOCF,−3.8 U/I
same,"ALT, Mean ± SD",[2]; V3 week 2,79.4 ± 40.6 U/l
same,"ALT/AST, Mean ± SD",[2]; V3 week 2,1.70 ± 0.51
same,"AP, Mean ± SD",[2]; V3 week 2,88.3 ± 34.3 U/l
same,"AST, Mean ± SD",[2]; V3 week 2,47.9 ± 22.4 U/l
same,"GGT, Mean ± SD",[2]; V3 week 2,151.9 ± 166.4 U/l
same,"Serum bilirubin, Mean ± SD",[2]; V3 week 2,0.63 ± 0.38 mg/dL
same,"ALT, Mean ± SD",[2]; V4 week 4,75.2 ± 34.6 U/l
same,"ALT/AST, Mean ± SD",[2]; V4 week 4,1.67 ± 0.48
same,"AP, Mean ± SD",[2]; V4 week 4,86.5 ± 34.3 U/l
same,"AST, Mean ± SD",[2]; V4 week 4,46.0 ± 18.8 U/l
same,"GGT, Mean ± SD",[2]; V4 week 4,138.9 ± 141.6 U/l
same,"Serum bilirubin, Mean ± SD",[2]; V4 week 4,0.61 ± 0.38 mg/dL
same,"ALT, Mean ± SD",[2]; V5 week 8,75.6 ± 36.8 U/l
same,"ALT/AST, Mean ± SD",[2]; V5 week 8,1.66 ± 0.47
same,"AP, Mean ± SD",[2]; V5 week 8,86.1 ± 30.0 U/l
same,"AST, Mean ± SD",[2]; V5 week 8,46.9 ± 24.4 U/l
same,"GGT, Mean ± SD",[2]; V5 week 8,133.6 ± 124.2 U/l
same,"Serum bilirubin, Mean ± SD",[2]; V5 week 8,0.64 ± 0.41 mg/dL
same,"ALT, Mean ± SD",[2]; V6 (LOCF),72.8 ± 33.2 U/l
same,"ALT/AST, Mean ± SD",[2]; V6 (LOCF),1.67 ± 0.48
same,"AP, Mean ± SD",[2]; V6 (LOCF),86.9 ± 32.2 U/l
same,"AST, Mean ± SD",[2]; V6 (LOCF),45.6 ± 24.7 U/l
same,"GGT, Mean ± SD",[2]; V6 (LOCF),137.6 ± 144.8 U/l
same,"Serum bilirubin, Mean ± SD",[2]; V6 (LOCF),0.62 ± 0.38 mg/dL
same,"ALT change, Mean ± SD",[2]; V6 (LOCF)-V2,−7.0 ± 27.4 U/l
same,"ALT/AST ratio change, Mean ± SD",[2]; V6 (LOCF)-V2,−0.05 and −0.05 ± 0.37
same,"AST change, Mean ± SD",[2]; V6 (LOCF)-V2,−3.8 ± 14.3 U/l
same,"Serum bilirubin change, Mean ± SD",[2]; V6 (LOCF)-V2,-0.01 ± 0.22 mg/dL
same,GGT,[2]; V6-LOCF,137.6 U/I
same,"ALT, Mean ± SD",[2]; V6 week 12,70.8 ± 31.6 U/l
same,"ALT/AST, Mean ± SD",[2]; V6 week 12,1.66 ± 0.45
same,"AP, Mean ± SD",[2]; V6 week 12,87.4 ± 32.7 U/l
same,"AST, Mean ± SD",[2]; V6 week 12,43.9 ± 20.4 U/l
same,"GGT, Mean ± SD",[2]; V6 week 12,139.2 ± 147.6 U/l
same,"Serum bilirubin, Mean ± SD",[2]; V6 week 12,0.62 ± 0.36 mg/dL
same,patients fulfilling outcome criterion ALT≤0.8 ULN,[2]; patients with ALT>0.8 at baseline,14.8%
